The values below come from publication PMC8291587, “Guanidine Derivatives: How Simple Structural Modification of Histamine H3R Antagonists Has Led to the Discovery of Potent Muscarinic M2R/M4R Antagonists” (ACS Chemical Neuroscience, 2021).

Assay [1] has as its target T1, muscarinic M2R (Homo sapiens, UniProt P08172).
T1 construct: host or cells: CHO cells (whole cells, Fura-2)
T1 sequence (P08172 1-466): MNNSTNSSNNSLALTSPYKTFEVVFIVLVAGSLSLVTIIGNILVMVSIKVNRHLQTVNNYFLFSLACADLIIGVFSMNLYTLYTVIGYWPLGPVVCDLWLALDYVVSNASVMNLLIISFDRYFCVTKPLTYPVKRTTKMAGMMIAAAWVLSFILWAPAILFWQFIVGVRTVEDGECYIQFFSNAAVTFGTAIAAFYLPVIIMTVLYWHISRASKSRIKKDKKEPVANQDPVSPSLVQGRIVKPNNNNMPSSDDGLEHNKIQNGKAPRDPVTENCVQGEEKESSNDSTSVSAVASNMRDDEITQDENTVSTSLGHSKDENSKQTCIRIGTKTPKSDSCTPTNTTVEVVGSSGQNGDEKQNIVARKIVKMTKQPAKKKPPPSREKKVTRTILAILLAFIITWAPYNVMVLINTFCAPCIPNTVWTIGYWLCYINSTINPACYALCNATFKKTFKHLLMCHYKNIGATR
In words: Intracellular Ca2+ measurement, functional response to ACh, M2R in CHO cells. It counts as cell-based. The method, then:
(§1) Linear Schild plot indicates the competitive interaction (slope = 1) of the tested compound (Supporting Information, Figure S55).
(§2) Intracellular Ca^2+ level was taken as a functional response to ACh. Black 96-well plates were seeded with 12,000 CHO cells per well. After two days of cultivation in DMEM at 37 °C under a humidified atmosphere containing 5% CO2, cells were washed with Krebs-HEPES buffer (KHB) (composition: (mM) NaCl (138), KCl (4), CaCl2 (1.3), MgCl2 (1), NaH2PO4 (1.2), HEPES (20), glucose (10), pH adjusted to 7.4) KHB was loaded with 5 μM Fura-2 (Sigma-Aldrich) for 1 h. The cells were washed with fresh KHB and preincubated with tested compounds for 1 h. Then plates were placed in a Cytation 3 reader. The first basal level (fluorescence dual excitation at 340 and 380 nm, emission at 510 nm) was measured. Following this, ACh was added to the desired concentration (ranging from 10 pM to 100 μM) by instrument injectors, and fluorescence was measured immediately. Intracellular Ca^2+ level was calculated as a ratio of 340 to 380 nm excitation fluorescence. […]
(§3) The intracellular level of calcium at various concentrations of ACh was measured. […] From a series of EC50 values of apparent inhibition constant KB was calculated by fitting eq 5 to dose ratio (DR) induced by tested compound at a given concentration: [drawing 5] […]

Assay [2] addresses T2, M3R (Homo sapiens, UniProt P20309).
T2 construct: host or cells: CHO cells (whole cells, Fura-2)
Briefly: Intracellular Ca2+ measurement, functional response to ACh, M3R in CHO cells. It counts as cell-based. As to conditions: antagonism of ACh-induced Ca2+ response, read-out: pKB M3R (converted). The method, then: as §1, §2, §3

Assay [3] has as its system H3R. Briefly: H3R agonism check with thioperamide on electrically stimulated guinea pig ileum. To be noted: thioperamide as H3R antagonist. The method, then: A standard ex vivo assay based on the relaxant response of histamine H3R agonists to electrically driven guinea pig ileum was used to test the influence of ADS compounds on the reduction of electrically evoked tissue contraction. […] The −log EC50 value for RAMH and ADS compounds were evaluated. […] Following this, we decided to evaluate the ADS series as potential M2R/M3R ligands on the isolated guinea pig ileum.
Male guinea pigs, weighing 300–400 g, were euthanized by a blow to the neck. A 20–30 cm length of the distal ileum, apart from the terminal 5 cm, was rapidly removed and placed in phosphate buffer at room temperature (pH 7.4) containing (mM) NaCl (136.9), KCl (2.6), KH2PO4 (1.47), Na2HPO4 (9.58), and indomethacin (1 × 10^–6 mol/L)). The intraluminal content was rinsed, and the isolated intestine was cut into 1.5–2 cm segments. The preparations were mounted between two platinum electrodes isotonically in a 20 mL organ bath filled with Krebs buffer: composition (mM) NaCl (118), KCl (5.6), MgSO4 (1.18), CaCl2 (2.5), NaH2PO4·H2O (1.28), NaHCO3 (25), glucose (5.55), and indomethacin (3 × 10^–7 mol/L). […] Cumulative concentration–response curve was determined to RAMH or tested agonist (10 nM to 10 mM) at increasing concentrations spaced by 3- or 3.3-fold. The agonist potency is expressed as pD2 value (−log EC50) ± sem.

T2 sequence (P20309 whole entry): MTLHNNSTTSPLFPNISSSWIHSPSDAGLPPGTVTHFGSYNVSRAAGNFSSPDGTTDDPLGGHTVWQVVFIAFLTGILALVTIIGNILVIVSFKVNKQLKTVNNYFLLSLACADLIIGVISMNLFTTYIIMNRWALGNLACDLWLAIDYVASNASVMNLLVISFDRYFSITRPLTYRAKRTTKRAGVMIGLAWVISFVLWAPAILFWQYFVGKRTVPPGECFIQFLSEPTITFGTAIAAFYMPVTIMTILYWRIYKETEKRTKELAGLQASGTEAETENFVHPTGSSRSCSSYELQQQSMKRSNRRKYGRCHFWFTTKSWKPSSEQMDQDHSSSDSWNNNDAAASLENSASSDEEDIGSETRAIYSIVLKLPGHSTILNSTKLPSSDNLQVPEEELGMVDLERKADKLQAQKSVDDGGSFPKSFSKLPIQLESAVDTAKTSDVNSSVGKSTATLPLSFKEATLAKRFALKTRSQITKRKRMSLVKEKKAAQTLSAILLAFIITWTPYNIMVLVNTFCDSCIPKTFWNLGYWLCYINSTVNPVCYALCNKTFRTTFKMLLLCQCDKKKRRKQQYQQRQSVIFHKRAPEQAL

Turning to `N=C(N)N(CCCCN1CCN(C[C@H]2CC[C@@H](COc3ccccc3)CC2)CC1)Cc1ccccc1` [ADS10227, 1-{4-{4-{[4-(phenoxymethyl)cyclohexyl]methyl}piperazin-1-yl}but-1-yl}-1-(benzyl)guanidine], the Kb in assay [1] (antagonism of ACh-induced Ca2+ response, CHO cells, read-out: pKB M2R (converted)) is 6.76 nM; in assay [2] it was 37.2 nM. In assay [1] (linear Schild plot, competitive interaction, M2R and M3R Ca2+ assays), this compound yielded a Schild plot slope of 1. Further, in assay [3], the “shift of the concentration–response curve with or without thioperamide (H3R agonism)” value is on record as “no shifts”.
